Source: US20050143336A1 (priority 2003, published 2005)
Entries after “also recorded” stand apart in the source; their conditions may differ. Read-outs that look alike come from different tables or passages of the source.

Columns and labels:
[1] = test system: TNF-α, IL-6 in lungs, liver and spleen; experiment: Organ cytokine levels (lungs, liver, spleen) after FUS1-nanoparticle with or without naproxen (ELISA); format: in vivo, C3H mice; conditions: naproxen 15 mg/kg orally pretreatment
Description: Cytokine profiles, Organ toxicity and Signalling molecules in C3H mice. To determine the cytokine profile, organ toxicity, signaling molecules responsible for inflammation, experiments were performed using immunocompetent female C3H mice. […] The amount of FUS1 plasmid injected was 100 μg. Serum and organ cytokine levels were determined by ELISA for murine TNF-α and murine Il-6. At indicated times after injection, blood was obtained via aspiration after right heart puncture. The blood was allowed to stand for 4 hours at 4° C. and then was centrifuged twice at 15,000 g for 10 minutes at 4° C. The supernatants (serum) were kept at −80° C. until used. Cytokine concentrations were quantified using specific ELISA kits (R&D systems) according to manufacturer's instructions. Organs were collected at 2, 4, and 15 h and were snap-frozen in liquid nitrogen and stored at […] until time of ELISA and Western blot analysis. At the time of ELISA, organs were slowly thawed on ice. The lung, liver and spleen was homogenized in 750 μl PBS containing a cocktail of protease inhibitors using a tissue homogenizer. The cytoplasmic fraction was isolated as the supernatant fraction following centrifugation at 15,000 g for 20 min at 4° C. The supernatant was used for the determination of TNF-α and IL-6 were quantitated by ELISA kits purchased from R&D Sytems and Biosource.fraction.

C3H mice [2] = test system: C3H mice
C3H mice [3] = format: in vivo; conditions: for protection: alive on day 14
Description: In vivo treatment of immunocompetent animals by intravenous injection of DOTAP:Cholesterol-FUS1 complex. Female C3H mice were divided into 3 groups (n=5/group). […] Complexes were injected intravenously via tail vein in a total volume of 200 μl. Animals were monitored initially at 1, 2, 6, 24, 48 hr and later every day until day 14. Animals that appeared morbid or moribund were euthanized by CO2 inhalation and various organs (lung, liver, kidneys, spleen, heart) were collected in buffered formalin and submitted for histopathological examination. Organs were also collected from animals that were dead, and these were submitted for histopathological analyses.

AP-1 = AP-1 DNA binding activity, electrophoretic mobility shift assay in MRC-9 cells; format: cell-based, Human; conditions: naproxen pretreatment before FUS1-nanoparticles
Description: Electrophoretic mobility shift assay (EMSA). MRC-9 cells were seeded in six well plates at 1.3×10^6 cells/well for EMSA. […] Cells were harvested at 2, 4 and 15 h after transfection and nuclear extracts prepared. To the nuclear extracts (10 μg), DNA binding reaction mixture containing [γ-^32P]-ATP radiolabeled AP-1 oligonucleotide and 0.5 μg poly (dI-dC) were added and incubated at 25° C. for 30 min in 5× gel shift binding buffer [20% glycerol, 5 mM MgCl2 2.5 mM EDTA, 2.5 mM DTT, 250 mM NaCl, 50 mM Tris-HCl (pH 7.5)]. The complexes were subsequently resolved on 5% nondenaturing polyacrylamide gels in 0.5×Tris-borate EDTA buffer for 1 h 30 min at 300 V. The bands were visualized by autoradiography.

mouse TNF-α = conditions: naproxen 15 mg/Kg orally 3 h prior to FUS1-nanoparticles 100 μg DNA i.v.
Description: In vivo experiments. To determine the effect of intravenous administration of FUS1-nanoparticles on inflammation and the potential use of inhibitors, in vivo experiments were conducted in immunocompetent female C3H mice. Mice were divided into three groups (n=5/group). […] Group 3 received intravenous injection of FUS1-nanoparticles only. The amount of plasmid DNA injected was 100 μg. […] At 2 h, 4 h, 6 h and 15 h after treatment with FUS1-nanoparticles, animals were euthanized and blood and organs (lung, liver, spleen) collected. Blood samples were analyzed for mouse TNF-α by ELISA (R&D Systems, MI). Tissue samples were analyzed for expression of inflammation-associated signaling molecules by western blotting (Ito et al., 2003).

[4] = test system: p38MAPK, pJNK, p44/42MAPK, pATF-2, pc-Jun, COX-2 in MRC-9 fibroblast cells; experiment: Inflammation-associated signaling molecules in MRC-9 cells transfected with FUS1-nanoparticles (western blot); format: cell-based, Human; conditions: naproxen 0.5 mM prior to FUS1-nanoparticles
Description: In vitro experiments. To determine the effect of FUS1-nanoparticles on the activation of signaling molecules associated with inflammation, MRC-9 fibroblast cells were seeded in six-well plates (5×10^5 cells/well) and incubated overnight at 37° C. and 5% CO2. […] Two-three hours after treatment, cells were transfected with FUS1-nanoparticles (2.5 μg DNA) in 0.2% serum medium. Cells were harvested at different time-points (2 h, 4 h, 15 h) after transfection, washed, and cell lysates prepared as previously described (Ramesh et al., 2001a). Untransfected cells treated with PBS served as control in these experiments. Cell lysates were subjected to western blotting analysis and probed with various antibodies as previously described (Ramesh et al., 2001b; Ito et al., 2003). In all the experiments, β-actin was detected using anti-β-actin antibody (Sigma Chemicals, St. Louis, Mo.) as a measure of internal loading control.

[5] = test system: luciferase expression in RAW 264.7 cells; conditions: RAW 264.7, 0.5 mM naproxen pretreatment
Description: To determine the effect of inhibitors on transgene expression, cells were transfected with a marker gene, luciferase (luc), complexed with nanoparticle. All other experimental conditions were the same as described above. […] Luciferase expression was expressed as relative light units per mg of protein (RLU/mg). Assays were performed in triplicates. Experiments were performed two times and the results represented as the average of two separate experiments.

[6] = test system: NFκB and STAT3 DNA binding; experiment: Electrophoretic mobility shift assay of lung nuclear extracts for NFκB and STAT3; format: in vivo, C3H mice; conditions: in the presence of naproxen
Description: Electrophoretic mobility shift assay. […] Santa Cruz Biotechnology, Santa Cruz, Calif.) and NF-κB consensus oligonucleotide […] These probes were end-labelled with [γ-^32P]ATP(3000 Ci/mmol at 10 mCi/ml; Amersham Biosciences, Sunnyvale, Calif.). DNA binding reactions were performed at room temperature in a 25-μl reaction mixture containing 6-μl of nuclear extract and 5 μl of 5× binding buffer (20% (w/v) Ficoll, 50 mM HEPES (pH 7.9), 5 mM EDTA, 5 mM DTT). […] Samples were electrophoresed through 5.5% polyacrylamide gels in 0.5×TBE at 160 V for 3 h, dried under vacuum, and exposed to X-ray film after overnight expose with hyperfilm at -80° C. The gel was then dried and subjected to autoradiography. […] The minced tissue was homogenized using a Dounce homogenizer and centrifuged at 14,000 rpm at 4° C. for 10 min. […] The supernatant (nuclear extract) was collected and stored at -80° C. until use. The protein concentrationm was measured by the method of Bradford with BSA as the standard. […] Briefly, Double-stranded oligonucleotides consensus NFκB (Promega) were end-labelled with [γ-^32P]-ATP using T4 polynucleotide kinase. […] The bands were visualized by autoradiography.

lung tumor cells = conditions: luc-nanoparticles in the presence of naproxen
[7] = test system: TNF-α, IL-6 and PGE2 production in RAW 264.7 cells; experiment: Inflammatory cytokines production assay in RAW 264.7 macrophage cells; format: cell-based, Mouse; conditions: RAW 264.7, naproxen 0.5 mM before FUS1-nanoparticle
Description: The following day, tissue culture medium was replaced with fresh 0.2% medium and incubated overnight at 37° C. and 5% CO2. […] Assay was performed according to manufacturer's protocol.

PGE2 production = PGE2 production assay in cells transfected with FUS1-nanoparticles; format: cell-based, Human; conditions: naproxen 0.5 mM prior to FUS1-nanoparticles
Description: PGE2 production assay. Cells were seeded in 6-well plates (1-3×10^6 cells/well) and incubated at 37° C. Twenty-four hours later, the culture medium was replaced and replenished with fresh medium supplemented with 0.2% serum. […] At 3.5 h after treatment cells were transfected with FUS1-nanoparticles (2.5 μg DNA). The amount of PGE2 secreted into the culture supernatant at various time (2 h, 4 h, and 15 h) points was determined using the PGE2 enzyme immunoassay (Cayman Chemicals, Ann Arbor, Mich.). Assay was performed according to manufacturer's protocol.

Structure (SMILES): COc1ccc2cc([C@H](C)C(=O)O)ccc2c1 [Naproxen, naproxen]
- TNF-α, IL-6 levels in lungs, liver and spleen [1]: significantly inhibited
- percentage of survival (C3H mice [2]; naproxen 5 mg/kg orally 2 to 3 h before FUS1-nanoparticle (100 μg FUS1)): 50%
- percentage of survival (C3H mice [2]; naproxen 15 mg/kg orally 2 to 3 h before FUS1-nanoparticle (100 μg FUS1)): 100%
- protection (C3H mice [3]; naproxen 5 mg/kg orally 2 hour prior to complex (100 μg DNA) i.v.): 60%
- protection (C3H mice [3]; naproxen 15 mg/kg orally 2 hour prior to complex (100 μg DNA) i.v.): 100%
- Diagnosis (histopathology) (C3H mice [3]; naproxen before complex, 15 hr): almost completely prevented all the inflammatory features except moderate lymphoid atrophy spleen
- AP-1 DNA binding activity (AP-1): inhibition of AP-1 activity
- TNF-α expression levels in blood at 2 h (mouse TNF-α): 411 pg/mL
- expression of downstream substrates pATF-2, pc-Jun and COX-2 [4]: decreased expression
- expression of p38MAPK, pJNK and p44/42MAPK [4]: significant inhibition
- transgene (luciferase) expression [5]: did not inhibit transgene (luciferase) expression but rather slightly enhanced the transgene expression over time
- activation of NFκB and STAT3 in lung [6]: suppressed
- transgene expression (lung tumor cells): Enhanced transgene expression
- production of TNF-α, IL-6 and PGE2 [7]: suppressed
- inhibition of PGE2 (PGE2 production): almost complete; also recorded: significantly inhibition in PGE2 levels
- secreted PGE2 levels (PGE2 production; 2-15 h): 33 to 120 pg/mL
